Results taken from PubChem BioAssay (NCI).
“And” between values parts separate entries of the source, which are not always exact repeats. Equal entries are not always repeated.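 All cell lines were grown in 96-well plates and treated with compound for 48 hours. GI50 = concentration required for 50% inhibition of growth. TGI marks complete inhibition of growth.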

How the values were obtained:
Assay in all cases: growth of human tumour cells (NCI), 48 h
MOLT-4 leukemia = test system: MOLT-4 leukemia
A498 renal = test system: A498 renal
OVCAR-3 ovarian = test system: OVCAR-3 ovarian
HCT-116 colon = test system: HCT-116 colon
BT-549 breast = test system: BT-549 breast
MDA-MB-435 = test system: MDA-MB-435
SK-MEL-2 melanoma = test system: SK-MEL-2 melanoma
DU-145 prostate = test system: DU-145 prostate
SF-539 CNS = test system: SF-539 CNS
MCF7 breast = test system: MCF7 breast

SMILES	GI50 (MOLT-4 leukemia) [µM]	TGI (MOLT-4 leukemia)	GI50 (A498 renal) [µM]	TGI (A498 renal) [µM]	GI50 (OVCAR-3 ovarian) [µM]	TGI (OVCAR-3 ovarian) [µM]	GI50 (HCT-116 colon) [µM]	TGI (HCT-116 colon) [µM]	GI50 (BT-549 breast) [µM]	TGI (BT-549 breast) [µM]	GI50 (MDA-MB-435) [µM]	TGI (MDA-MB-435) [µM]	GI50 (SK-MEL-2 melanoma) [µM]	TGI (SK-MEL-2 melanoma) [µM]	GI50 (DU-145 prostate) [µM]	TGI (DU-145 prostate) [µM]	GI50 (SF-539 CNS) [µM]	TGI (SF-539 CNS) [µM]	TGI (MCF7 breast) [µM]	GI50 (MCF7 breast) [µM]
ClCc1cccc(Cn2cnc3ncnc(Cl)c32)c1	10.6	29.4 µM	18.4	35.9	1.77	3.23	1.78	5.21	13.1	28.6	3.46	12.9	5.76	22.8	15.2	31	19.9	36		
COc1cc(NCc2ccc3oc(=O)c(-c4ccccc4)nc3c2)cc(OC)c1OC		> 10 µM				> 10		> 10				> 10		> 10		> 10		> 10	> 10	
O=S1(=O)OCCOS(=O)(=O)C1Br		> 100 µM		> 100		> 100		> 100						> 100				> 100		
C[Si](C)(C)C1(Sc2ccccc2)SCCCS1		85.1 µM		> 100		> 100		> 100						> 100				75.2		
OCCCCCNCc1cc2cc3c(cc2c2cc(OCc4ccccc4)ccc12)OCO3	1.41	4.55 µM	3.57	14.2	1.68	3.14	1.46	2.81	1.62	2.98	1.66	3.02	1.74	3.24	1.54	2.88	1.64	3		
CCN1CCN(c2nc(C)cc(N(CCNc3ccnc4cc(Cl)ccc34)Cc3ccc4c(c3)OCO4)n2)CC1	2.1	6.2 µM	1.9	5.71	2.28	7.02	1.38	3.51	1.74	3.73	1.7	3.25	1.98	3.85			1.7	3.18	5.89	1.98
Cc1cc(-c2ccc3nc(C4CCOCC4)n(CCOC(F)(F)F)c3c2)cn(C)c1=O	0.588	17.5 µM		3.03		3.94		14.8	3.99	> 80.4	0.21	> 47.5	0.988	15.5						0.0586
CN(C)c1nc(=Nc2ccc(N=c3nc(N(C)C)ss3)cc2)ss1		51.3 µM		> 79.3		> 78.6		34.1						> 100				> 100		
CCN(CC)/C(SCc1ccccc1)=C(\C(Cl)=C(Cl)Cl)[N+](=O)[O-]		44.5 µM		26.9		24.3		28.2				32		45.5		39.2		39.4	32.1	
CCOC(=O)c1cc2nc3ccccc3c(=O)n2c2ccccc12				> 10		> 10		> 10		> 10		> 10		> 10		> 10		> 10	> 10	
Cc1ccc(S(=O)(=O)Nc2ccccc2C(=O)c2ccc(C)c(C)c2)cc1				> 100		> 100		> 100		> 100		> 100		> 100		> 100		> 100	> 100	
CC(=O)/C(=C\c1cccc([N+](=O)[O-])c1)C(=O)Nc1ccccc1C		> 100 µM				> 100		> 100						> 100				> 100		
[Cl-].[La+3].[O-]/N=C(\c1ccccc1)c1ccccn1.[O-]/N=C(\c1ccccc1)c1ccccn1.[O-]/N=C(\c1ccccc1)c1ccccn1	37.6	> 100 µM	77.6	> 100	39.2	> 100	44	> 100					37.1	> 100			29.7	> 85.7		
CC1=CC(O)(c2ccc(-c3ccccc3Cl)cc2)OC1=O (configuration not stated)		> 100 µM				> 100								> 100				> 100		
CC(C)=Cc1cc(C(=O)Nc2ccc(Cl)c(Cl)c2)nc(N)n1		> 100 µM		> 100		> 100		> 100						> 100				> 100		
Cc1c2c(nn1-c1ccc(S(=O)(=O)/N=C3\SCCC(=O)N3c3ccccc3)cc1)-c1ccccc1CC2	> 100	> 100 µM			> 100	> 100	> 100	> 100	> 100	> 100	> 100	> 100	> 100	> 100	> 100	> 100				
CCN1c2ccccc2C(C(SC)S(=O)(=O)c2ccc(C)cc2)c2c1[nH]c(=O)n(C)c2=O (configuration not stated)		> 100 µM		> 100		> 100		> 100						> 100				> 100		
O=[N+]([O-])C(/C=C(\Cl)n1nnc2ccccc21)=C(/Cl)n1nnc2ccccc21		> 100 µM		> 100		> 100		> 100				> 100		> 100		> 100		> 100		
CCOC(=O)CC(=O)ON(C)C(C)=O		> 100 µM		> 100		> 100		> 100						> 100				> 100		
CC(C)OP(=O)(OC(C)C)C(=NCCN=C(NNc1ccc([N+](=O)[O-])cc1)P(=O)(OC(C)C)OC(C)C)NNc1ccc([N+](=O)[O-])cc1		> 100 µM		60.3		33.4		> 100						53				> 100		
O=C(/C=C\c1ccc(Cl)c(Cl)c1)c1ccc(Cl)cc1Cl		7.86 µM and 48.4 µM	> 100	> 100		35.7	2.68	> 100						41.9				37.7		
CC(=O)OC1COC(n2ccc3cc(Br)c([N+](=O)[O-])cc32)C(OC(C)=O)C1OC(C)=O (configuration not stated)				78.9		65.6												44.4		
